This note sets out measurements from US20040224958A1, “Pyridopyrimidinone derivatives for treatment of neurodegenerative disease” (priority 2000, published 2004).

The target in one assay is cdk2/cyclinE (Homo sapiens, UniProt P24941). Briefly: Cyclin-Dependent Kinase Assay cdk2/cyclinE. Conditions: cdk2/E IC50.
For the next assay, the target named is cdc2/cyclinB (Homo sapiens, UniProt P06493). Description: Cyclin-Dependent Kinase Assay cdc2/cyclinB.
A further assay has as its target cdk4/D (Homo sapiens, UniProt P11802). Description: Cyclin-Dependent Kinase 4 (cdk4) Assay. The class given is biochemical. The following applies: read-out: cdk4/D IC50.
The next assay addresses Cdk5/p25 (Homo sapiens, UniProt Q00535). Briefly: Cyclin-Dependent Kinase 5 High Throughput Screening (cdk5-HTS) Assay. Format: biochemical. Conditions: high throughput screen. The procedure, abridged:
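IC50 determined from 33P incorporation into GST-RbCOOH captured on glutathione plates and read by scintillation counting. Reaction: 1.0 μg/mL Cdk5/p25, 20 μM [γ33P]ATP, pH 7.4 Tris buffer with MgCl2 and DTT, 30 min at room temperature, stopped with EDTA.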

The target in a further assay is cdk2/cyclinA (Homo sapiens, UniProt P24941). Briefly: Cyclin-Dependent Kinase Assay cdk2/cyclinA. Conditions: cdk2/A IC50.

Chain of cdk4/D (P11802 whole entry): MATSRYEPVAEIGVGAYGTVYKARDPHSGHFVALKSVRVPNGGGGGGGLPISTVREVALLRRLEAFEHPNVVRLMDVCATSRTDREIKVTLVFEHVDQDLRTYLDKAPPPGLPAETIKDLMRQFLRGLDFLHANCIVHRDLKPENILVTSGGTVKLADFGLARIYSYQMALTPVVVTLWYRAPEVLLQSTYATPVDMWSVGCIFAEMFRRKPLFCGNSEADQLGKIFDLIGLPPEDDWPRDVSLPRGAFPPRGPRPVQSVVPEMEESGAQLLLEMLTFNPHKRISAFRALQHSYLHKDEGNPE
Chain of cdk4/D (P24385 whole entry, further chain): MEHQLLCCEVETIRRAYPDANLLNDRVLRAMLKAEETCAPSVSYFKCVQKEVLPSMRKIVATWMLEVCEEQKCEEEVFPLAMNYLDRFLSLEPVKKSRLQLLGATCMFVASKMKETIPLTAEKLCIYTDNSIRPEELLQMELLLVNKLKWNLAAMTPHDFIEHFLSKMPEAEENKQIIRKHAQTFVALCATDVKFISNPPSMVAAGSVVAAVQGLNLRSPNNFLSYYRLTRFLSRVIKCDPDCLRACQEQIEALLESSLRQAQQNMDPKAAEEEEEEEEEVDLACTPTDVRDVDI
Chain of cdc2/cyclinB (P06493 whole entry): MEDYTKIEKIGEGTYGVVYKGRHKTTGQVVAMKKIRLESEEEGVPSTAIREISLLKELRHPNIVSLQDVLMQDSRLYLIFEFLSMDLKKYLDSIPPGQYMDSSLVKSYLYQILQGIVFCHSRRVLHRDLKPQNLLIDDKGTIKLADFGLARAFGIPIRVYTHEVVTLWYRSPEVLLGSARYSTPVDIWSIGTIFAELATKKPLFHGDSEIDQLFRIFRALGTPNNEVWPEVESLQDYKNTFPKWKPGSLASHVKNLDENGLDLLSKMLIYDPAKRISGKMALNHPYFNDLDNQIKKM
Chain of cdc2/cyclinB (P14635 whole entry, further chain): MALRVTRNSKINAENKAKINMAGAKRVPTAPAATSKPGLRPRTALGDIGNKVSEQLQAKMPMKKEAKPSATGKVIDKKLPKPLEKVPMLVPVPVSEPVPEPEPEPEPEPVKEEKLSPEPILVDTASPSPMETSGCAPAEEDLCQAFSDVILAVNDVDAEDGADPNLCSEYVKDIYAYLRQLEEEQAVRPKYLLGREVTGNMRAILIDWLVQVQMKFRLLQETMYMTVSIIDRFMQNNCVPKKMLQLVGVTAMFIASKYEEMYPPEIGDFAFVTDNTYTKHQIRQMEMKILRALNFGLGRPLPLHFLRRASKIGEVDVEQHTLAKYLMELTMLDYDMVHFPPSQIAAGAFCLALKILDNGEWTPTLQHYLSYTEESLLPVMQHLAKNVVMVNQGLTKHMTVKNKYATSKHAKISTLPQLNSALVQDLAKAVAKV
Protocol for cdk2/cyclinA: Cyclin-Dependent Kinase Assays (cdk2/cyclinE, cdk2/cyclinA, cdc2/cyclinB)
All components except the ATP were added to the wells, and the plate was placed on a plate mixer for 2 minutes. The reaction was begun by addition of [^32P]ATP, and the plate was incubated at 25° C. for 15 minutes. The reaction was terminated by addition of 0.1 mL of 20% TCA. The plate was kept at 4° C. for at least 1 hour to allow the substrate to precipitate. The wells were then washed five times with 0.2 mL of 10% TCA and ^32p incorporation determined with a beta plate counter (Wallac Inc., Gaithersburg, Md.).

`CCCCn1c(=O)ccc2cnc(Nc3ccc(S(N)(=O)=O)cc3)nc21` [Example 393, 4-(8-Butyl-7-oxo-7,8-dihydro-pyrido[2,3-d]pyrimidin-2-ylamino)-benzenesulfonamide]: the IC50 on cdk2/cyclinE came to 11 nM; on cdc2/cyclinB, 45 nM; on cdk4/D, 180 nM; against Cdk5/p25, 9.7 nM; against cdk2/cyclinA, 34 nM.

With `CCCCn1c(=O)ccc2cnc(Nc3ccc(OC)c(F)c3)nc21` [Example 394, 8-Butyl-2-(3-fluoro-4-methoxy-phenylamino)-8H-pyrido[2,3-d]pyrimidin-7-one], the IC50 turned out to be 120 nM against cdk2/cyclinE; 360 nM against cdc2/cyclinB; 120 nM at cdk4/D; 150 nM against Cdk5/p25; 340 nM against cdk2/cyclinA.

As to `CCCCn1c(=O)ccc2cnc(Nc3ccc(C#N)c(NC(C)=O)c3)nc21` [Example 395, N-[5-(8-Butyl-7-oxo-7,8-dihydro-pyrido[2,3-d]pyrimidin-2-ylamino)-2-cyano-phenyl]-acetamide], the IC50 on cdk2/cyclinE is 85 nM; on cdc2/cyclinB it was 220 nM; at cdk4/D, 90 nM; on Cdk5/p25 it was 91 nM; on cdk2/cyclinA, 340 nM.

`CCCCn1c(=O)ccc2cnc(Nc3cc(OC)cc(C(F)(F)F)c3)nc21` [Example 396, 8-Butyl-2-(3-methoxy-5-trifluoromethyl-phenylamino)-8H-pyrido[2,3-d]pyrimidin-7-one]: the IC50 at cdk2/cyclinE is 300 nM; against cdc2/cyclinB it was 600 nM; at cdk4/D it was 1100 nM; at Cdk5/p25, 590 nM; on cdk2/cyclinA, 2600 nM.

As for `CCCCn1c(=O)ccc2cnc(Nc3ccc(F)c(F)c3)nc21` [Example 397, 8-Butyl-2-(3,4-difluoro-phenylamino)-8H-pyrido[2,3-d]pyrimidin-7-one], the IC50 came out at 75 nM on cdk2/cyclinE; 290 nM against cdc2/cyclinB; 250 nM on cdk4/D; 81 nM on Cdk5/p25; 310 nM against cdk2/cyclinA.

On to `CCCCn1c(=O)ccc2cnc(Nc3ccc(I)c(Cl)c3)nc21` [Example 398, 8-Butyl-2-(3-chloro-4-iodo-phenylamino)-8H-pyrido[2,3-d]pyrimidin-7-one], for which the IC50 stood at 350 nM at cdk2/cyclinE; 420 nM on cdc2/cyclinB; 230 nM on cdk4/D; 88 nM against Cdk5/p25; 1400 nM against cdk2/cyclinA.

On to `CCCCn1c(=O)ccc2cnc(Nc3cc(C)cc(C)c3)nc21` [Example 399, 8-Butyl-2-(3,5-dimethyl-phenylamino)-8H-pyrido[2,3-d]pyrimidin-7-one], for which the IC50 against cdk2/cyclinE amounted to 50 nM; at cdc2/cyclinB it was 63 nM; at cdk4/D, 920 nM; on Cdk5/p25 it was 14 nM; against cdk2/cyclinA, 310 nM.

Take `CCCCn1c(=O)ccc2cnc(Nc3ccc(C)c(Cl)c3)nc21` [Example 400, 8-Butyl-2-(3-chloro-4-methyl-phenylamino)-8H-pyrido[2,3-d]pyrimidin-7-one]: the IC50 amounted to 56 nM on cdk2/cyclinE; 120 nM at cdc2/cyclinB; 170 nM on cdk4/D; 38 nM against Cdk5/p25; 480 nM at cdk2/cyclinA.

With `CCCCn1c(=O)ccc2cnc(Nc3ccc(Cl)c(C(F)(F)F)c3)nc21` [Example 401, 8-Butyl-2-(4-chloro-3-trifluoromethyl-phenylamino)-8H-pyrido[2,3-d]pyrimidin-7-one], the IC50 against cdk2/cyclinE came out at 860 nM; at cdc2/cyclinB, 1900 nM; at cdk4/D it was 1300 nM; on Cdk5/p25, 292 nM; against cdk2/cyclinA it was 880 nM.

Take `CCCCn1c(=O)ccc2cnc(Nc3cccc(S(N)(=O)=O)c3)nc21` [Example 402, 3-(8-Butyl-7-oxo-7,8-dihydro-pyrido[2,3-d]pyrimidin-2-ylamino)-benzenesulfonamide]: the IC50 against cdk2/cyclinE was found to be 25 nM; against cdc2/cyclinB, 58 nM; on cdk4/D, 87 nM; against Cdk5/p25 it was 20 nM; at cdk2/cyclinA, 140 nM.

In the case of `CCCCn1c(=O)ccc2cnc(Nc3ccc4c(c3)CCCC4=O)nc21` [Example 403, 8-Butyl-2-(5-oxo-5,6,7,8-tetrahydro-naphthalen-2-ylamino)-8H-pyrido[2,3-d]pyrimidin-7-one], the IC50 was 39 nM against cdk2/cyclinE; 73 nM against cdc2/cyclinB; 93 nM on cdk4/D; 23 nM against Cdk5/p25; 230 nM against cdk2/cyclinA.

Consider `CCCCn1c(=O)ccc2cnc(Nc3cc(F)cc(F)c3)nc21` [Example 404, 8-Butyl-2-(3,5-difluoro-phenylamino)-8H-pyrido[2,3-d]pyrimidin-7-one], for which the IC50 on cdk2/cyclinE is 300 nM; against cdc2/cyclinB, 610 nM; at cdk4/D, 1900 nM; on Cdk5/p25, 280 nM; at cdk2/cyclinA, 650 nM.

Turning to `CC(C)n1c(=O)ccc2cnc(Nc3cccc([N+](=O)[O-])c3)nc21` [Example 406, 8-Isopropyl-2-(3-nitro-phenylamino)-8H-pyrido[2,3-d]pyrimidin-7-one], the IC50 against cdk2/cyclinE was 94.7 nM; at cdc2/cyclinB it was 113 nM; on cdk4/D, 260 nM; on Cdk5/p25, 52.5 nM; against cdk2/cyclinA, 160 nM.

As for `CC(C)n1c(=O)ccc2cnc(Nc3ccc(F)c(C(F)(F)F)c3)nc21` [Example 407, 2-(4-Fluoro-3-trifluoromethyl-phenylamino)-8-isopropyl-8H-pyrido[2,3-d]pyrimidin-7-one], the IC50 on cdk2/cyclinE was found to be 680 nM; on cdc2/cyclinB, 320 nM; on cdk4/D it was 980 nM; at Cdk5/p25 it was 56 nM; at cdk2/cyclinA it was 460 nM.

For the molecule `Cc1cc(Nc2ncc3ccc(=O)n(C(C)C)c3n2)ccc1F` [Example 408, 2-(4-Fluoro-3-methyl-phenylamino)-8-isopropyl-8H1-pyrido[2,3-d]pyrimidin-7-one], the IC50 at cdk2/cyclinE stood at 110 nM; on cdc2/cyclinB, 190 nM; on cdk4/D, 130 nM; against Cdk5/p25, 13 nM; against cdk2/cyclinA, 150 nM.

For the molecule `CC(C)n1c(=O)ccc2cnc(Nc3ccc4[nH]ccc4c3)nc21` [Example 409, 2-(1H-Indol-5-ylamino)-8-isopropyl-8H-pyrido[2,3-d]pyrimidin-7-one], the IC50 against cdk2/cyclinE was 99.3 nM; at cdc2/cyclinB, 260 nM; on cdk4/D, 44 nM; against Cdk5/p25, 54 nM; against cdk2/cyclinA it was 260 nM.

Take `CC(C)n1c(=O)ccc2cnc(Nc3ccc4[nH]nnc4c3)nc21` [Example 410, 2-(1H-Benzotriazol-5-ylamino)-8-isopropyl-8H-pyrido[2,3-d]pyrimidin-7-one]: the IC50 against cdk2/cyclinE is 88 nM; at cdc2/cyclinB it was 245 nM; at cdk4/D, 152 nM; against Cdk5/p25, 44.5 nM; on cdk2/cyclinA, 135 nM.

For the molecule `CC(C)n1c(=O)ccc2cnc(Nc3ccc(NC(=O)OC(C)(C)C)cc3)nc21` [Example 411, [4-(8-Isopropyl-7-oxo-7,8-dihydro-pyrido[2,3-d]pyrimidin-2-ylamino)-phenyl]-carbamic acid tert-butyl ester], the IC50 on cdk2/cyclinE is 200 nM; against cdc2/cyclinB, 273 nM; at cdk4/D it was 180 nM; against Cdk5/p25, 177 nM; against cdk2/cyclinA, 263 nM.

As to `CC(C)n1c(=O)ccc2cnc(Nc3cc(Cl)c(O)c(Cl)c3)nc21` [Example 412, 2-(3,5-Dichloro-4-hydroxy-phenylamino)-8-isopropyl-8H-pyrido[2,3-d]pyrimidin-7-one], the IC50 on cdk2/cyclinE amounted to 512 nM; at cdc2/cyclinB, 715 nM; on cdk4/D it was 2000 nM; on Cdk5/p25, 278 nM; at cdk2/cyclinA it was 713 nM.

Turning to `CC(C)n1c(=O)ccc2cnc(Nc3ccc(O)c(Cl)c3)nc21` [Example 413, 2-(3-Chloro-4-hydroxy-phenylamino)-8-isopropyl-8H-pyrido[2,3-d]pyrimidin-7-one], the IC50 came out at 52.3 nM at cdk2/cyclinE; 68 nM at cdc2/cyclinB; 180 nM on cdk4/D; 43.5 nM on Cdk5/p25; 138 nM against cdk2/cyclinA.

Consider `CC(=O)Nc1ccc(Nc2ncc3ccc(=O)n(C(C)C)c3n2)cc1` [Example 414, N-[4-(8-Isopropyl-7-oxo-7,8-dihydro-pyrido[2,3-d]pyrimidin-2-ylamino)-phenyl]-acetamide], for which the IC50 at cdk2/cyclinE amounted to 91 nM; at cdc2/cyclinB, 165 nM; at cdk4/D it was 51 nM; against Cdk5/p25, 38.5 nM; at cdk2/cyclinA, 155 nM.

Take `CCCCn1c(=O)ccc2cnc(Nc3cc([N+](=O)[O-])ccc3F)nc21` [Example 415, 8-Butyl-2-(2-fluoro-5-nitro-phenylamino)-8H-pyrido[2,3-d]pyrimidin-7-one]: the IC50 is 240 nM against cdk2/cyclinE; 1100 nM against cdc2/cyclinB; 490 nM on cdk4/D; 290 nM on Cdk5/p25; 1100 nM against cdk2/cyclinA.

Consider `COc1cc(Nc2ncc3ccc(=O)n(C(C)C)c3n2)cc(OC)c1OC` [Example 417, 8-Isopropyl-2-(3,4,5-trimethoxy-phenylamino)-8H-pyrido[2,3-d]pyrimidin-7-one], for which the IC50 was 590 nM against cdk2/cyclinE; 880 nM at cdc2/cyclinB; 3400 nM at cdk4/D; 170 nM at Cdk5/p25; 870 nM against cdk2/cyclinA.

`CC(C)n1c(=O)ccc2cnc(Nc3ccc(S(N)(=O)=O)cc3)nc21` [Example 418, 4-(8-Isopropyl-7-oxo-7,8-dihydro-pyrido[2,3-d]pyrimidin-2-ylamino)-benzenesulfonamide]: the IC50 on cdk2/cyclinE is 27 nM; at cdc2/cyclinB, 90 nM; at cdk4/D, 130 nM; against Cdk5/p25, 15 nM; against cdk2/cyclinA it was 33 nM.
